Patent US20220275018A1, “NOVEL SPIROBICYCLIC INTERMEDIATES” (Janssen Pharmaceutica NV, priority 2019, published 2022)

What was measured:
[1] = target: human PRMT5 complex enzyme (Homo sapiens, UniProt O14744); test: PRMT5 inhibition study ([3H]SAM / Histone H4 methylation, filter scintillation counting); type: biochemical; conditions: 30 μM test compound; 120 min at 22° C.; 600 nM [3H]SAM, 250 nM Histone H4 full length; percent inhibition of the control enzyme activity
Protocol: The test compound, reference compound, or water (control) were incubated for 120 min at 22° C. with about 200 ng human PRMT5 complex enzyme, 600 nM [^3H]SAM and 250 nM Histone H4 full length in a buffer containing 45 mM Tris-HCl (pH 9), 45 mM NaCl, 4.5 mM MgCl2 and 3.6 mM DTT (Dithiothreitol).
For control basal measurements, the enzyme was omitted from the reaction mixture. Following incubation, the reaction was stopped by adding 33 mM citric acid and the samples were filtered rapidly in vacuo through glass fiber filters (GF/B, Packard) presoaked with 33 mM citric acid and rinsed several times with ice-cold 33 mM citric acid using a 96-sample cell harvester (Unifilter, Packard). The filters were dried then counted for radioactivity in a scintillation counter (Topcount, Packard) using a scintillation cocktail (Microscint 0, Packard).
The results were expressed as a percent inhibition of the control enzyme activity.

human PRMT5 complex enzyme, sequence (O14744 whole entry): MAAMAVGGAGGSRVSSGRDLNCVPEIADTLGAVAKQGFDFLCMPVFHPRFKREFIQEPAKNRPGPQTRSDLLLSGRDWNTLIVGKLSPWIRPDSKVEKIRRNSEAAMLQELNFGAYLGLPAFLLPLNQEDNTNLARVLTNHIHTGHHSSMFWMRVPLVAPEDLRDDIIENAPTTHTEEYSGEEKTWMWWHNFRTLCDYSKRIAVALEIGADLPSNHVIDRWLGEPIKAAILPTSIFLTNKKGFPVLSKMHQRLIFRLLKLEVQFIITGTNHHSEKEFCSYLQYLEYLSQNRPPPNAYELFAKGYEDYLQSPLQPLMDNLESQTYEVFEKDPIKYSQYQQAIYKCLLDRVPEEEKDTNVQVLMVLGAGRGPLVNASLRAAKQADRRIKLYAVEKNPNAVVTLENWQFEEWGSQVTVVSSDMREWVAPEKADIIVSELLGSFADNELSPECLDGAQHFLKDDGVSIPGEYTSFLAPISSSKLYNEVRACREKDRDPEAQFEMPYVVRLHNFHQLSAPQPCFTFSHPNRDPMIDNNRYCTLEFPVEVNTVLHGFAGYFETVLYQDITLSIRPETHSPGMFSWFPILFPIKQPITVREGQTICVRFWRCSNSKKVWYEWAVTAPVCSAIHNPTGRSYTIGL
human PRMT5 complex enzyme, sequence (Q9BQA1 whole entry partner): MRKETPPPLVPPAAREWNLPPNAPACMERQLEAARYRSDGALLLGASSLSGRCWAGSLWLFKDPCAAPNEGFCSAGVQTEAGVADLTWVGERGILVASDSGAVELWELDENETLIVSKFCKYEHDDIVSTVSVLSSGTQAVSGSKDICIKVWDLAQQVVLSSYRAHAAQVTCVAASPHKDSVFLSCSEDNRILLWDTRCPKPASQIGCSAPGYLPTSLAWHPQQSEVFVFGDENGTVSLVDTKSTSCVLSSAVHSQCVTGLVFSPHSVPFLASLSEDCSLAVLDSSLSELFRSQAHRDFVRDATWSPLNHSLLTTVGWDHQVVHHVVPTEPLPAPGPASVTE

Compound	inhibition at 30 µM [1] [%]	other results
Nc1ncnc2c1ncn2[C@@H]1O[C@]2(C[C@H](O)C2)[C@@H](O)[C@H]1O	37.7	
Nc1ncnc2c1ncn2[C@@H]1O[C@]2(C[C@@H](O)C2)[C@@H](O)[C@H]1O	70.3	
Nc1ncnc2c1ccn2[C@@H]1C[C@]2(C[C@H](Cc3cccnc3)C2)[C@@H](O)[C@H]1O	100	
Nc1ncnc2c1ccn2[C@@H]1C[C@]2(C[C@@H](Cc3cccnc3)C2)[C@@H](O)[C@H]1O	99.8	
Nc1ncnc2c1ccn2[C@@H]1C[C@]2(C[C@@H](Cc3ccn4ccnc4c3)C2)[C@@H](O)[C@H]1O	102	
CCCN[C@H]1C[C@]2(C[C@@H](n3cnc4c(N)ncnc43)[C@H](O)[C@@H]2O)C1	69.8	
Nc1ncnc2c1ccn2[C@@H]1O[C@]2(C[C@@H](N)C2)[C@@H](O)[C@H]1O	46.3	
CCCN[C@H]1C[C@]2(C1)O[C@@H](n1cnc3c(N)ncnc31)[C@H](O)[C@@H]2O	33.8	
NC[C@H]1C[C@]12O[C@@H](n1cnc3c(N)ncnc31)C(O)C2O (stereo partly drawn)	79	
CCCN(C)C[C@H]1C[C@]12O[C@@H](n1cnc3c(N)ncnc31)C(O)C2O (stereo partly drawn)	16	
CCCNC[C@H]1C[C@]12O[C@@H](n1cnc3c(N)ncnc31)C(O)C2O (stereo partly drawn)	39	
C=C1O[C@@H]2OC(C)(C)O[C@@H]2[C@@H]1OCc1ccc2ccccc2c1 [Compound 66.2]		melting point: 102.01 °C
CC1(C)O[C@H]2OC3(CC(=O)C3)[C@@H](OCc3ccc4ccccc4c3)[C@H]2O1 [Compound 66.4]		melting point: 101.79 °C
Nc1ncnc2c1ncn2[C@@H]1O[C@@]2(C[C@H]2CO)C(O)C1O (stereo partly drawn) [drawing 333]		% PRMT5 inhibition at 30 μM [1]: 55.9%

The next lines start with results.

inhibition at 30 µM [1] [%]	Compound	other results
98	Nc1ncnc2c1ncn2[C@@H]1O[C@@]2(CC[C@H]2O)C(O)C1O (stereo partly drawn)	
42	Nc1ncnc2c1ncn2[C@@H]1O[C@@]2(CC[C@@H]2O)C(O)C1O (stereo partly drawn)	
72	Nc1ncnc2c1ncn2[C@@H]1O[C@@]2(C[C@H]2O)C(O)C1O (stereo partly drawn)	
29	Nc1ncnc2c1ncn2[C@@H]1O[C@@]2(C[C@@H]2CO)C(O)C1O (stereo partly drawn)	
84	Nc1ncnc2c1ncn2[C@@H]1O[C@]2(C[C@@H]2CO)C(O)C1O (stereo partly drawn)	
31	Nc1ncnc2c1ncn2[C@@H]1O[C@]2(C[C@H]2CO)C(O)C1O (stereo partly drawn)	
36.4	Nc1ncnc2c1ncn2[C@@H]1O[C@@]2(C[C@H]2CO)C(O)C1O (stereo partly drawn) [drawing 332]	
